According to PubChem BioAssay (NCI):
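GI50 = concentration required for 50% inhibition of growth. TGI: total growth inhibition.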

What was measured:
Assay in all cases: NCI tumour cell line growth inhibition, 384-well format
OVCAR-5 ovarian = tested on: OVCAR-5 ovarian
NCI/ADR-RES ovarian = tested on: NCI/ADR-RES ovarian
TK-10 renal = tested on: TK-10 renal
UACC-257 melanoma = tested on: UACC-257 melanoma
MALME-3M melanoma = tested on: MALME-3M melanoma
SNB-19 CNS = tested on: SNB-19 CNS
MCF7 breast = tested on: MCF7 breast
NCI-H23 lung = tested on: NCI-H23 lung
A549 NSCLC = tested on: A549 NSCLC
SK-MEL-2 melanoma = tested on: SK-MEL-2 melanoma
SNB-75 CNS = tested on: SNB-75 CNS
RPMI-8226 leukemia = tested on: RPMI-8226 leukemia
NCI-H522 lung = tested on: NCI-H522 lung
786-0 renal = tested on: 786-0 renal
ACHN renal = tested on: ACHN renal
NCI-H322M lung = tested on: NCI-H322M lung
HCT-15 colon = tested on: HCT-15 colon
LOX IMVI melanoma = tested on: LOX IMVI melanoma
MOLT-4 leukemia = tested on: MOLT-4 leukemia
SR leukemia = tested on: SR leukemia
HCC-2998 colon = tested on: HCC-2998 colon
SK-MEL-5 melanoma = tested on: SK-MEL-5 melanoma
HS 578T breast = tested on: HS 578T breast
OVCAR-8 ovarian = tested on: OVCAR-8 ovarian
T-47D breast = tested on: T-47D breast
NCI-H460 NSCLC = tested on: NCI-H460 NSCLC
RXF 393 renal = tested on: RXF 393 renal
HL-60(TB) leukemia = tested on: HL-60(TB) leukemia
HOP-92 NSCLC = tested on: HOP-92 NSCLC
CAKI-1 renal = tested on: CAKI-1 renal
KM12 colon = tested on: KM12 colon
M14 melanoma = tested on: M14 melanoma
CCRF-CEM leukemia = tested on: CCRF-CEM leukemia
K-562 leukemia = tested on: K-562 leukemia
SF-268 CNS = tested on: SF-268 CNS
SF-539 CNS = tested on: SF-539 CNS
HT29 colon = tested on: HT29 colon
EKVX NSCLC = tested on: EKVX NSCLC
U251 glioblastoma = tested on: U251 glioblastoma
SN12C renal = tested on: SN12C renal
SW-620 colon = tested on: SW-620 colon
UO-31 renal = tested on: UO-31 renal
HCT-116 colon = tested on: HCT-116 colon
UACC-62 melanoma = tested on: UACC-62 melanoma
MDA-MB-231 breast = tested on: MDA-MB-231 breast
OVCAR-4 ovarian = tested on: OVCAR-4 ovarian
SK-MEL-28 melanoma = tested on: SK-MEL-28 melanoma
IGROV1 ovarian = tested on: IGROV1 ovarian
NCI-H226 lung = tested on: NCI-H226 lung
DU-145 prostate = tested on: DU-145 prostate
BT-549 breast = tested on: BT-549 breast
A498 renal = tested on: A498 renal
SK-OV-3 ovarian = tested on: SK-OV-3 ovarian
PC-3 prostate = tested on: PC-3 prostate
SF-295 CNS = tested on: SF-295 CNS
MDA-MB-435 melanoma = tested on: MDA-MB-435 melanoma
COLO 205 colon = tested on: COLO 205 colon
HOP-62 NSCLC = tested on: HOP-62 NSCLC
OVCAR-3 ovarian = tested on: OVCAR-3 ovarian
MDA-MB-468 breast = tested on: MDA-MB-468 breast

## O=C(Cc1ccccc1)Nc1nnc(CCSCCc2nnc(NC(=O)Cc3ccccc3)s2)s1
OVCAR-5 ovarian
  GI50: 16.7 µM
  TGI: > 100 µM
NCI/ADR-RES ovarian
  GI50: > 100 µM
  TGI: > 100 µM
TK-10 renal
  GI50: 18 µM
  TGI: 62.2 µM
UACC-257 melanoma
  GI50: 13.5 µM
  TGI: > 76.6 µM
MALME-3M melanoma
  GI50: 16.1 µM
  TGI: 45.5 µM
SNB-19 CNS
  GI50: 19.4 µM
  TGI: 48 µM
MCF7 breast
  GI50: > 28.5 µM
  TGI: > 75.1 µM
NCI-H23 lung
  GI50: 16.1 µM
  TGI: 39.7 µM
A549 NSCLC
  GI50: 1.06 µM
  TGI: 5.54 µM
SK-MEL-2 melanoma
  GI50: 3.07 µM
  TGI: 10.7 µM
SNB-75 CNS
  GI50: 8.91 µM
  TGI: 27.2 µM
RPMI-8226 leukemia
  GI50: 1.42 µM
NCI-H522 lung
  GI50: 2.92 µM
  TGI: 15.1 µM
786-0 renal
  GI50: 2.27 µM
  TGI: 8.96 µM
ACHN renal
  GI50: > 30 µM
  TGI: > 100 µM
NCI-H322M lung
  GI50: 0.393 µM
  TGI: 2.21 µM
HCT-15 colon
  GI50: > 100 µM
  TGI: > 100 µM
LOX IMVI melanoma
  GI50: 3.99 µM
  TGI: 23.1 µM
MOLT-4 leukemia
  GI50: > 39.2 µM
  TGI: > 100 µM
SR leukemia
  GI50: 0.544 µM
  TGI: > 100 µM
HCC-2998 colon
  GI50: 39.7 µM
  TGI: > 100 µM
SK-MEL-5 melanoma
  GI50: 10.4 µM
  TGI: 52.5 µM
HS 578T breast
  GI50: 0.9 µM
  TGI: 3.37 µM
OVCAR-8 ovarian
  GI50: 4.38 µM
  TGI: 17.9 µM
T-47D breast
  GI50: 27.3 µM
  TGI: > 88.3 µM
NCI-H460 NSCLC
  GI50: 10.8 µM
  TGI: > 100 µM
RXF 393 renal
  GI50: 1.42 µM
  TGI: 4.88 µM
HL-60(TB) leukemia
  GI50: 28.3 µM
  TGI: > 100 µM
HOP-92 NSCLC
  GI50: 3.05 µM
  TGI: 14.8 µM
CAKI-1 renal
  GI50: 8.03 µM
  TGI: > 41 µM
KM12 colon
  GI50: 1.94 µM
  TGI: > 100 µM
M14 melanoma
  GI50: > 43.4 µM
  TGI: > 88.8 µM
CCRF-CEM leukemia
  GI50: 11.6 µM
  TGI: > 100 µM
K-562 leukemia
  GI50: 10.1 µM
  TGI: > 100 µM
SF-268 CNS
  GI50: 2.16 µM
  TGI: 9.86 µM
SF-539 CNS
  GI50: 3.16 µM
  TGI: 18.2 µM
HT29 colon
  GI50: > 100 µM
  TGI: > 100 µM
EKVX NSCLC
  GI50: 17.2 µM
  TGI: > 92.9 µM
U251 glioblastoma
  GI50: 3.13 µM
  TGI: 21.4 µM
SN12C renal
  GI50: 3.29 µM
  TGI: 19.5 µM
SW-620 colon
  GI50: > 60.9 µM
  TGI: > 100 µM
UO-31 renal
  GI50: 46 µM
  TGI: > 100 µM
HCT-116 colon
  GI50: > 72.6 µM
  TGI: > 100 µM
UACC-62 melanoma
  GI50: 8.39 µM
  TGI: 31.1 µM
MDA-MB-231 breast
  GI50: 3.07 µM
  TGI: 28.9 µM
OVCAR-4 ovarian
  GI50: 13.2 µM
  TGI: 40.5 µM
SK-MEL-28 melanoma
  GI50: 21.7 µM
  TGI: > 61.2 µM
IGROV1 ovarian
  GI50: 29.1 µM
  TGI: > 94 µM
NCI-H226 lung
  GI50: 7.56 µM
  TGI: 31.3 µM
DU-145 prostate
  GI50: 14 µM
  TGI: > 100 µM
BT-549 breast
  GI50: 9.85 µM
  TGI: 30.5 µM
A498 renal
  GI50: 3.13 µM
  TGI: 11.9 µM
SK-OV-3 ovarian
  GI50: 15.5 µM
  TGI: 40.4 µM
PC-3 prostate
  GI50: 13.4 µM
  TGI: 35 µM
SF-295 CNS
  GI50: 9.57 µM
  TGI: 26.4 µM
MDA-MB-435 melanoma
  GI50: 30 µM
  TGI: > 100 µM
COLO 205 colon
  GI50: > 100 µM
  TGI: > 100 µM
HOP-62 NSCLC
  GI50: 2.92 µM
  TGI: 11.9 µM
OVCAR-3 ovarian
  GI50: 7.24 µM
  TGI: > 60.5 µM
MDA-MB-468 breast
  GI50: 29.7 µM
  TGI: > 83.2 µM
